Tests used:
Leukemic K562 cells = conditions: Asahi et al., 1995; cited from earlier work
Dd cells [1] = assay: Vesicle-mediated release of cargo molecule from Dd cells (micro-spectrofluorimetry of “12,000” vesicles); type: cell-based, Dictyostelium discoideum
Procedure: The capacity of Dd cells to internalise different exogenous molecules was studied. Further, their ability to release vesicles, in particular the “12,000” vesicles, carrying a broad-spectrum of molecules of interest was assessed. Flow cytometry and micro-spectrofluorimetry were used to measure respectively the cell internalisation and the vesicle-mediated release of the fluorescent cargo molecule as a function of incubation time in the growth medium. Growing Dd cells were incubated for different periods of time up to 72 h in the presence of the exogenous molecule. Fractions of the cells were fixed in 2% paraformaldehyde after each one of these increasing incubation times. Simultaneously, the externalised “12,000” vesicles were prepared from aliquots of the growth medium and concentrated (×20). As controls, Dd cells were grown in parallel without the cargo molecule and handled the same. Moreover, cell counting during growth allowed to check for any cytotoxicity of the studied molecule as a function of time. Cell and vesicle samples were kept at 4° C. until measurements.

Dd cells [2] = assay: Cytotoxicity of the cargo molecule towards growing Dd cells (cell counting during growth); type: cell-based, Dictyostelium discoideum
Procedure: The growth curve of Dd cells, continuously maintained with HO342 (10 μg/ml) since the initiation of the culture at a density of 3×10^6 cells/ml is shown on FIG. 3a. Images of Dd cells, fixed in 70% MeOH at different times (from 72 h to 216 h), show the aspect of the cells and of their HO342 stained nuclei. Apoptosis might increase as a function of time along the stationary plateau (Tatischeff et al., 2001), and the characteristic much smaller size of apoptotic cells were predominant for the t′216 fixed Dd cells (FIG. 3a).
The capacity of Dd cells to internalise different exogenous molecules was studied. Further, their ability to release vesicles, in particular the “12,000” vesicles, carrying a broad-spectrum of molecules of interest was assessed. Flow cytometry and micro-spectrofluorimetry were used to measure respectively the cell internalisation and the vesicle-mediated release of the fluorescent cargo molecule as a function of incubation time in the growth medium. Growing Dd cells were incubated for different periods of time up to 72 h in the presence of the exogenous molecule. Fractions of the cells were fixed in 2% paraformaldehyde after each one of these increasing incubation times. Simultaneously, the externalised “12,000” vesicles were prepared from aliquots of the growth medium and concentrated (×20). […]

CCCCCC(=O)c1c(O)c(Cl)c(OC)c(Cl)c1O [DIF]
differentiation of K562 cells (Leukemic K562 cells): differentiate and recover the capacity to synthesize haemoglobin

COc1cccc2c1C(=O)c1c(O)c3c(c(O)c1C2=O)C[C@@](O)(C(=O)CO)C[C@@H]3O[C@H]1C[C@H](N)[C@H](O)[C@H](C)O1 [Doxorubicine]
release of the molecule into vesicles (Dd cells [1]): also released into “12,000” vesicles

CCOc1ccc(-c2nc3ccc(-c4nc5ccc(N6CCN(C)CC6)cc5[nH]4)cc3[nH]2)cc1 [HO342, Hoechst 33342]
cytotoxicity during incubation with Dd cells in the growth medium (Dd cells [2]; HO342 10 μg/ml, continuously since initiation of culture): absence of cytotoxicity

Cc1cc(O)c2c(=O)c3c(O)cc(O)c4c5c(O)cc(O)c6c(=O)c7c(O)cc(C)c8c1c2c(c34)c(c78)c65 [hypericin]
toxicity towards Dd cells (Dd cells [2]; hypericin 25 μM in growth medium): without any apparent toxicity

— US7790196B2, “Extracellular vesicles from non-pathogenic amoebae useful as vehicle for transferring a molecule of interest to an eukaryotic cell” (Universite Pierre et Marie Curie- Paris VI, priority 2003, dated 2010)
